Patent US20260284011A1, “COMPOUNDS FOR RESTORING SUSCEPTIBILITY TO BETA-LACTAM ANTIBIOTICS” (UNIVERSITY OF NOTRE DAME DU LAC, priority 2023, published 2026)

Molecular target: BlaR (Staphylococcus aureus, UniProt P18357)
Assay: Live-cell fluorescent assay for BlaR inhibition (Venus reporter)
Type: cell-based, S. aureus NRS144pCN52RI-Venus
Settings: compound at 100 mg/L^−1; CBAP 10 mg·L^−1; fluorescence after 2 h
Description: Live-Cell Fluorescent Assay in Discovery and Mechanism of Action. We conceived of fluorescent constructs in the bla operon, for the purpose of screening (FIG. 2a). We removed the gene for the β-lactamase (blaZ) and put in its place individually the genes for the Green Fluorescent Protein (GFP), Venus (a yellow-fluorescent protein) or mCherry (a red-fluorescent protein) in the template plasmid pCN52. The three plasmids were named pCN52RI, pCN52RI-Venus and pCN52RI-mCherry, respectively. The genes for the fluorescent proteins were transcribed under the promoter of the blaZ gene and were regulated by the proteins BlaR and BlaI, as is the case for the wild-type bla operon.
We transformed separately S. aureus NRS144—a laboratory strain that accepts a foreign gene and harbors neither the bla nor the mec operons—with each of these plasmids. […] When induced, the fluorescent protein is produced and is detected (akin to expression of the resistance genes blaZ or mecA in typical MSSA and MRSA). […] The transformed strains were grown in tryptic soy broth medium for overnight culture and strain maintenance and incubated in cation-adjusted Mueller-Hinton broth medium for inhibitor screening in a 96-well microplate format. The culture without CBAP addition was the negative control. In order to select a desirable reporter construct, we compared the intensity of the fluorescence produced from each construct at the wavelengths given in FIG. 2a using the Cytation-5 multi-mode microplate reader. Among the three constructs, pCN52RI-Venus produced the best fluorescence intensity and pCN52RI-mCherry was the second best (FIG. 4).
The collection of the 100 compounds from the in-silico search was screened against S. aureus NRS144pCN52RI-Venus. The screening strategy was as follows. Bacteria grown to OD600 of 0.25 were exposed concurrently to CBAP (10 mg·L^−1) and the test compound (100 mg·L^−1). Fluorescence was recorded after two hours of incubation. OD600 values were also recorded to identify compounds with inherent antibacterial activity. Compound 1 (Chart 1) emerged—82% diminished fluorescence as an indication of the extent of BlaR inhibition—as a suitable template for structure elaboration. This effort led to the synthesis of several dozen benzimidazole and imidazole compounds. The progression of the iterative design is depicted in Chart 1 for four compounds, culminating in 4. […] The X-ray structures for the complexes of compounds 2 (non-covalent) and 4 (covalent) with the BlaR sensor domain are shown respectively in FIG. 2b (2.0 Å resolution) and FIG. 2c (1.97 Å resolution). Compound 4 makes a covalent bond with the catalytic Ser389 and creates a network of hydrogen bonds with the BlaR active site (FIG. 2c).
Fluorescent assay for screening of BlaR potential inhibitors. A 3-mL portion of lysogeny broth (LB) medium was inoculated with NRS144pCN52RI Venus from frozen stocks and grown overnight at 37° C. The overnight culture was then diluted 1:150 fold with fresh LB containing […] of erythromycin and incubated at 37° C. to an OD600 of 0.3, at which point fluorescence was induced by the addition of CBAP to a final concentration of 10 μg·mL^−1. The culture was aliquoted (99 L) into 96-well plate and 1 L of inhibitor solution (1 mg·mL^−1 in DMSO) was added to each well. Negative control (DMSO without CBAP) and positive control (CBAP without inhibitor) were included. The plate was incubated at 30° C. for 2 h with intermittent shaking. Fluorescence and OD600 measurements were taken by a Cytation-5 multimode microplate reader. Percent inhibition of BlaR and bacterial growth were calculated using absorbance unit (AU) and OD600 values of each sample entered into this formula: […]

Sequence of BlaR (P18357 whole entry): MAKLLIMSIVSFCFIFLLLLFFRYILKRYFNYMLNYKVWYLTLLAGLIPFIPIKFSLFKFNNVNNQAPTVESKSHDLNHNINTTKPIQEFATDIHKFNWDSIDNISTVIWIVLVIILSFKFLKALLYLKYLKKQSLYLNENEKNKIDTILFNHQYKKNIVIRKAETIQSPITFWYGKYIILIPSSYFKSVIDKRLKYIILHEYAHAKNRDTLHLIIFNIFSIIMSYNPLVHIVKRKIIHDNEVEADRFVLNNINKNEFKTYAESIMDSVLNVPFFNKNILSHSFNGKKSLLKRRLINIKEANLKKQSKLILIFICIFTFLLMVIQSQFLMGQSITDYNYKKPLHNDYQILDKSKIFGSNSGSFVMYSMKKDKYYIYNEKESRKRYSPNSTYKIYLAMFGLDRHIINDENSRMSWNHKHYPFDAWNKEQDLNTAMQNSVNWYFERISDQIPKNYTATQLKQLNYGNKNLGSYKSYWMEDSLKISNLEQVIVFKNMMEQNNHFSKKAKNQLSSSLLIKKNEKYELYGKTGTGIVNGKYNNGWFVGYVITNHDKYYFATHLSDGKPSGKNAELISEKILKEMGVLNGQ

**Q.** With `N#Cc1ccc2nc(SCB(O)O)n(Cc3ccc(C(F)(F)F)cc3C(F)(F)F)c2c1` [Compound 4, (((1-(2,4-bis(trifluoro-methyl)benzyl)-6-cyano-1H-benzo[d]imidazol-2-yl)thio)methyl)boronic acid] as the molecule, how does the “% Inhibition of BlaR” value read?
**A.** The value was 98%.
